Measurements from patent US10034476B2, “Insecticidal phenyl-or pyridyl-piperdine compounds” (Syngenta Participations AG, priority 2008, dated 2018).
Structures can show the parent of a compound that is named as a salt.

Columns and labels:
Assay type in all cases: in vivo
Spodoptera littoralis = Spodoptera littoralis (Egyptian cotton leafworm) cotton leaf disc spray test; conditions: foliar, 72 h, 200 ppm spray on cotton leaf discs, L1 larvae, 3 DAT, mortality, feeding behavior, growth regulation
Excerpt: Spodoptera littoralis (Egyptian Cotton Leafworm) Cotton leaf discs were placed on agar in a 24-well microtiter plate and sprayed with test solutions at an application rate of 200 ppm. After drying, the leaf discs were infested with 5 L1 larvae. The samples were checked for mortality, feeding behavior, and growth regulation 3 days after treatment (DAT).

Heliothis virescens = Heliothis virescens (tobacco budworm) egg/artificial diet test; conditions: 96 h, 200 ppm (concentration in well 18 ppm), eggs 0-24 h old on artificial diet, 4 days, egg mortality, larval mortality, growth regulation
Description: Heliothis virescens (Tobacco Budworm): Eggs (0-24 h old) were placed in 24-well microtiter plate on artificial diet and treated with test solutions at an application rate of 200 ppm (concentration in well 18 ppm) by pipetting. After an incubation period of 4 days, samples were checked for egg mortality, larval mortality, and growth regulation.

Plutella xylostella = Plutella xylostella (diamond back moth) artificial diet test; conditions: 144 h, 200 ppm (concentration in well 18 ppm), L2 larvae, 6 days, larval mortality, growth regulation
Description: (§1) Plutella xylostella (Diamond Back Moth): 24-well microtiter plate (MTP) with artificial diet was treated with test solutions at an application rate of 200 ppm (concentration in well 18 ppm) by pipetting. After drying, the MTP's were infested with L2 larvae (7-12 per well). After an incubation period of 6 days, samples were checked for larval mortality and growth regulation.

Diabrotica balteata = Diabrotica balteata (corn root worm) artificial diet test; conditions: 120 h, 200 ppm (concentration in well 18 ppm), L2 larvae, 5 days, larval mortality, growth regulation
Description: as §1, with “Diabrotica Balteata (Corn Root Worm): A” for “Plutella xylostella (Diamond Back Moth):”, “with” for “with L2”, “(L2) (6-10” for “(7-12”, “5” for “6”, “mortality,” for “mortality”

Measured: pest or weed control at 200 ppm

O=C(Nc1cc(F)c(F)c(F)c1C1CCN(Cc2ccc(-c3ccc(F)cc3)cc2)CC1)c1ccnc(Cl)c1 [Compound E1, 2-chloro-N-{3,4,5-trifluoro-2-[1-(4′-fluoro-biphenyl-4-ylmethyl)-piperidin-4-yl]-phenyl}-isonicotinamide]
≥ 80%: all assays above

O=C(Nc1ccc(C(F)(F)F)cc1C1CCN(Cc2ccc(-c3ccc(Cl)cc3Cl)cc2)CC1)c1ccnc(Cl)c1 [Compound F1]
≥ 80%: all assays above

O=C(Nc1cc(F)c(F)c(F)c1C1CC[N+]([O-])(Cc2ccc(-c3ccc(F)cc3)cc2)CC1)c1ccnc(Cl)c1 (stereo not shown) [Compound G1, 2-chloro-N-{3,4,5-trifluoro-2-[1-(4′-fluoro-biphenyl-4-ylmethyl)-piperidin-4-yl]-phenyl}-isonicotinamide N-oxide]
≥ 80%: all assays above

O=C(Nc1ccc(C(F)(F)F)cc1C1CC[N+](O)(Cc2ccc(-c3ccc(F)cc3)cc2)CC1)c1ccnc(Cl)c1 (stereo not shown) [Compound J1]
≥ 80%: all assays above

O=C(Nc1ccc(C(F)(F)F)nc1C1CC[N+](O)(Cc2ccc(-c3ccc(F)cc3)cc2)CC1)c1ccnc(Cl)c1 (stereo not shown) [Compound K1, 2-chloro-N-[1′-(4′-fluoro-biphenyl-4-ylmethyl)-1′-oxy-6-trifluoromethyl-1′,2′,3′,4′,5′,6′-hexahydro-[2,4′]bipyridinyl-3-yl]-isonicotinamide 3-hydroxypropyl sulfonate salt]
≥ 80%: all assays above

O=C(Nc1cc(Cl)c(Cl)nc1C1CCN(Cc2ccc(-c3ccc(F)cc3)cc2)CC1)c1ccnc(Cl)c1 [Compound M1, hydrochloride]
≥ 80%: all assays above

O=C(Nc1ccc(C(F)(F)F)nc1C1CCN(Cc2ccc(-c3ccc(F)cc3)cc2)CC1)c1ccnc(Cl)c1 [Compound M4]
≥ 80%: all assays above
